Reference: patent US12042545B2, “Encapsulated extracellular vesicles” (THE BOARD OF TRUSTEES OF THE UNIVERSITY OF ILLINOIS, priority 2020, dated 2024)
Ends that are not written are not given here.

Assay: Bulk transport experiments: release from alginate hydrogels
Settings: not given

Row | Molecule | effect of treatment on EV release from hydrogels
1 | NC1=N[C@H](O)[C@H]2[C@H]3O[C@]4(O)O[C@@H]([C@@H](O)[C@@]2(N1)[C@@H]4O)[C@]3(O)CO [tetrodotoxin] | significantly increased EV release in soft and stiff stress relaxing hydrogels

Same assay, conditions: EVs encapsulated in alginate hydrogels, agent added or tethered

Row | Molecule | effect of treatment on EV release from hydrogels
2 | C[C@H](CCC(=O)O)C[C@H](C)C[C@H](C)C(=O)/C=C(\O)[C@H](C)C[C@H](C)C/C=C/[C@@H](C)[C@@H](O)[C@@H](C)[C@@H](O)C[C@@H]1CC[C@@](C)([C@H]2CC[C@@](C)([C@@H](C)O)O2)O1 [ionomycin] | did not affect the release
3 | O=C(O)CN(CCOCCOCCN(CC(=O)O)CC(=O)O)CC(=O)O [EGTA] | did not affect the release
4 | O=C(O)c1cc([N+](=O)[O-])ccc1NCCCc1ccccc1 [NPPB] | did not alter EV release from the hydrogels
5 | CCN(c1nc(N)c(C(=O)NC(=N)N)nc1Cl)C(C)C [EIPA] | did not alter EV release from the hydrogels
6 | Cc1ccc2c(c1)C(=O)C1(O)CCN(c3ccccc3)C1=N2 (stereo not drawn) [blebbistatin] | did not affect the EV release
7 | C[C@@H](N)[C@H]1CC[C@H](C(=O)Nc2ccncc2)CC1 [Y27632] | did not affect the EV release
8 | GsMTx4: a selective inhibition of cation-permeable mechanosensitive channels (GCLEFWWKCNPNDDKCCRPKLKCSKLFKLCNFSF; ends and bridges not checked; cysteine pairing not given here; UniProt Q7YT39 47-80, looked up) | increased EV release in stiff stress relaxing hydrogels

Same assay, conditions: added to EV preparations during lyophilization

Row | Molecule | release behavior of lyophilized EVs with cryoprotectant
9 | OC[C@H]1O[C@H](O[C@H]2O[C@H](CO)[C@@H](O)[C@H](O)[C@H]2O)[C@H](O)[C@@H](O)[C@@H]1O [trehalose] | recovered release behavior
